From publication PMC6821791, “Phase I Trial of Pyragrel, a Novel Thromboxane Synthetase Inhibitor, to Evaluate the Safety, Tolerability, and Pharmacokinetics in Healthy Volunteers” (Frontiers in Pharmacology, 2019)

Columns and labels:
[1] = Safety assessment, adverse event monitoring (Parts I-V); type: in vivo, human
Procedure: Safety was assessed using subject interviews and adverse event (AE) monitoring. All subjects received laboratory examinations after termination of drug infusion for 48 or 72 h; the examination items are the same as those listed in the screening process. If clinical abnormalities were present, further follow-ups were required until the laboratory test values or vital sign levels of the abnormal items returned to normal values or stable levels. The clinical significance of abnormal laboratory test values was determined by the physicians.
The vital signs were analyzed by repeated measures analysis of variance (ANOVA), and laboratory indexes were analyzed by the paired t-test and one-way ANOVA. Comparison within different dose regimens of pyragrel or among different treatments (pyragrel, ozagrel, and placebo) or production of urinary 11-D-HTXB2 among groups was performed with the t-test, and expected values were considered along with the actual situation. Descriptive methods were used to compare the incidence of AE between pyragrel and ozagrel/placebo or in different pyragrel dose regimens; the normal/abnormal changes in laboratory examinations before and after administration were described.

[2] = dog, in vivo; cited from earlier work
[3] = parameters: method as in Morio et al., 1993; conditions: patients with ozagrel treatment; ref Morio et al., 1993; cited from earlier work
[4] = Part I, controls of the 30 mg dose group (ozagrel 80 mg)
[5] = Part I, controls of the 120 mg dose group (ozagrel 80 mg)
[6] = Part I, controls of the 180 mg dose group (ozagrel 80 mg)

O=C(O)/C=C/c1ccc(Cn2ccnc2)cc1 [Ozagrel, Sodium ozagrel, reference compound]
Number of AEs in Part I ([1]; Part I, 36 pyragrel-treated subjects, 8 subjects of ozagrel treatment): 3
AE Type, Ozagrel/placebo [1, 4]: DB elevation
Number of AEs, Ozagrel/placebo [1, 4]: 1
Number of AEs, Ozagrel/placebo ([1]; Part I, controls of the 60 mg dose group (ozagrel 80 mg)): 0
AE Type, Ozagrel/placebo [1, 5]: DB elevation
Number of AEs, Ozagrel/placebo [1, 5]: 1
AE Type, Ozagrel/placebo [1, 6]: abdominal pain
Number of AEs, Ozagrel/placebo [1, 6]: 1
Number of AEs, Ozagrel/placebo ([1]; Part I, listed as of the 240 mg dose group): 0
Number of AEs, Ozagrel/placebo ([1]; Part I, listed as of the 300 mg dose group): 0
Number of AEs, Ozagrel/placebo ([1]; Total): 3
Incidence of elevation in conjugated bilirubin (DB elevation) ([1]; all parts, 12/68 subjects of pyragrel, 2/8 subjects of ozagrel): 25%
Maximum safe dose [2]: 12.5 mg/kg/day
Incidence rate of severe bleeding [3]: up to 5%
